Test results reported in ChEMBL document CHEMBL1201862, “PubChem BioAssay data set” (2004).
Activity calls are given as the source filed them.

What was measured:
Beta Lactamase = Beta Lactamase (Pseudomonas aeruginosa, UniProt Q932Y6); test: BLA reporter interference, concentration series – BLA reporter cells, FRET fluorescence, artefact control for TLR9-MyD88 binding inhibitor project, dose response (AID 588341); type: cell-based;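 note: cell based assay in CHO-K1 cells stably expressing beta-lactamase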
[1] = biological target: T1, Endoribonuclease toxin MazF (Escherichia coli K-12, UniProt P0AE70); test: activation of MazEF endoribonuclease cleavage – biochemical, fluorescence, single-stranded RNA substrate, uHTS hits, dose response (AID 588481); type: functional
T1 sequence (P0AE70 whole entry): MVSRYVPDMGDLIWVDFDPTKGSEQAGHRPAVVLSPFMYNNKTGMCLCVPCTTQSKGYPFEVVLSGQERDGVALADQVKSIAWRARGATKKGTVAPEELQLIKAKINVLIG

Keap1/Nrf2 = Keap1/Nrf2 (Homo sapiens, UniProt Q14145); test: disruptors of Keap1 binding to Nrf2 peptide – biochemical, fluorescence polarization, cherry-picked samples, dose response (AID 588683)
ORF 73 = ORF 73 (Human herpesvirus 8, UniProt O40947); test: KSHV LANA DNA-binding disruption – biochemical, fluorescence polarization, cherry-picked samples, dose response (AID 504725); parameters: species or system Human gammaherpesvirus 8;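 note: fluorescence polarization of a labeled DNA duplex reporting LANA DNA binding; potency is for inhibitors that block LANA binding to the DNA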
Troponin, cardiac muscle = Troponin, cardiac muscle (Homo sapiens, UniProt P19429+P45379+P63316); test: Fluorescence-based biochemical high throughput dose response assay for activators of the calcium sensitivity of cardiac Regulated Thin Filaments (RTF). [Related pubchem assays (depositor defined):AID493008, AID493018, AID504382, AID504383]; type: protein-complex assay
Ephrin type-A receptor 4 = Ephrin type-A receptor 4 (Mus musculus, UniProt Q03137); test: EphA4 ligand-binding antagonists – biochemical, colorimetric, mouse EphA4, primary screen (AID 689); type: functional
[2] = biological target: T1, Endoribonuclease toxin MazF; test: substrate-only fluorescence increase artefacts – biochemical, single-stranded RNase substrate, counter-screen for MazEF activator project, dose response (AID 588502); type: functional
[3] = biological target: T2, Corticotropin-releasing factor receptor 2/Corticotropin-releasing factor-binding protein (Homo sapiens, UniProt P24387+Q13324); test: activators of CRF receptor 2 with binding protein – uHTS hits, confirmation (AID 602473); type: functional; details: read-out: EC50_Mean
T2 sequence (Q13324 whole entry): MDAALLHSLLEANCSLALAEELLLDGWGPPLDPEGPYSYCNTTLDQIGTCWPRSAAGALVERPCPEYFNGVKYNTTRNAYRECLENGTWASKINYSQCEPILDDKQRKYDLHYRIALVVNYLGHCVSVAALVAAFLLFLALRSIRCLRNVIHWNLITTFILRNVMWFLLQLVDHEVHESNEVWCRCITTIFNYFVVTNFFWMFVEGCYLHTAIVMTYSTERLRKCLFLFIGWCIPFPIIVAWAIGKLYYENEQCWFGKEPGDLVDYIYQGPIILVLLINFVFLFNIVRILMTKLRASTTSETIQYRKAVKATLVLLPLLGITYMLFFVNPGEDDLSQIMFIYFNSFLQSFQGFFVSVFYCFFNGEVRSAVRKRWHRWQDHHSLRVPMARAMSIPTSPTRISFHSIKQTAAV
T2 sequence (P24387 whole entry): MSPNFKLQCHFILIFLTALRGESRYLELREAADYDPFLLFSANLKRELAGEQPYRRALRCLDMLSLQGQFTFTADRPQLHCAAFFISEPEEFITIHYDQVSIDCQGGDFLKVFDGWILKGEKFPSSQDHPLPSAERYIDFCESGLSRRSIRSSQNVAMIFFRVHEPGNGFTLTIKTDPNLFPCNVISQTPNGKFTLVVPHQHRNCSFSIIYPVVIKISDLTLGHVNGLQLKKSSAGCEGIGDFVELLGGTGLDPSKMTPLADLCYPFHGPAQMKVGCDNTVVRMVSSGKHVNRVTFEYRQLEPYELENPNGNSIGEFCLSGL

CHO = CHO cell viability loss, potency – luminescence, cytotoxicity control for TLR9-MyD88 binding inhibitor project, dose response (AID 588339); type: functional, cell-based, hamster; details: Cricetulus griseus;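 note: CHO cells stably coexpressing TLR9 and MyD88 fusions from primary screen; compound exposure lasted 48 hours before viability readout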
HeLa = test: viability loss in HeLa cells – cell-based, 24 h, cherry-picked samples, cytotoxicity control, dose response (AID 504726); type: functional; details: Homo sapiens
[4] = NIH-3T3 fibroblast cytotoxicity, dose response, cytotoxicity control, cell-based, fluorescence, Alamar Blue, secondary assay (AID 2327); type: functional;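 note: NIH-3T3 mouse fibroblasts cultured with fluconazole at 8 µg/mL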
[5] = NIH3T3 cell viability loss – ATP luminescence, mouse fibroblasts, counter-screen, dose response (AID 2010); type: functional, cell-based;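 note: cells exposed to compound for about 90 hours before reading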
[6] = biological target: ATP-dependent molecular chaperone HSP82 (Candida albicans (strain WO-1) (Yeast), UniProt C4YTQ8); test: steroid-induced GRE reporter decrease in yeast – S. cerevisiae, luminescence, Hsp90 inhibitor project, dose response (AID 2400); type: functional, cell-based;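 note: beta-galactosidase luminescence from glucocorticoid response element reporter as proxy for Hsp90 function; inhibitor potency where signal loss means Hsp90 inhibition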
HEK293 [7] = test: SAR Analysis of small molecule inhibitors of T-cell specific antigen receptor-induced NF-kB activation in a HEK-293T cell line using a luminescence assay - Set 2. [Related pubchem assays (depositor defined):AID435003, AID435012, AID489026]; type: functional, cell-based; details: Homo sapiens
INS1 = test: INS-1E survival protection against cytokine death – cell-based, luminescence, retest, dose response (AID 449756); type: functional; details: Rattus norvegicus;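 note: cell death triggered by IL-1 beta plus TNF-alpha plus IFN-gamma mixture; protective hits raise ATP signal compared with cytokine alone wells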
[8] = HEK-293T viability loss after treatment – luminescence, T-cell screen hits, cytotoxicity control for TCR NF-kB inhibitor project, dose response (AID 489026); type: functional, cell-based;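 note: cells exposed to compound about 14 hours before the viability readout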
Streptokinase A = biological target: T3, Streptokinase A (Streptococcus pyogenes serotype M1, UniProt P10520); test: viability-normalized secreted streptokinase activity reduction – plasminogen activation absorbance, OD405, dose response (AID 1914); type: functional, Streptococcus pyogenes M1 GAS;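 note: secreted streptokinase activity via plasminogen activation per viability signal from cell pellet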
T3 sequence (P10520 whole entry): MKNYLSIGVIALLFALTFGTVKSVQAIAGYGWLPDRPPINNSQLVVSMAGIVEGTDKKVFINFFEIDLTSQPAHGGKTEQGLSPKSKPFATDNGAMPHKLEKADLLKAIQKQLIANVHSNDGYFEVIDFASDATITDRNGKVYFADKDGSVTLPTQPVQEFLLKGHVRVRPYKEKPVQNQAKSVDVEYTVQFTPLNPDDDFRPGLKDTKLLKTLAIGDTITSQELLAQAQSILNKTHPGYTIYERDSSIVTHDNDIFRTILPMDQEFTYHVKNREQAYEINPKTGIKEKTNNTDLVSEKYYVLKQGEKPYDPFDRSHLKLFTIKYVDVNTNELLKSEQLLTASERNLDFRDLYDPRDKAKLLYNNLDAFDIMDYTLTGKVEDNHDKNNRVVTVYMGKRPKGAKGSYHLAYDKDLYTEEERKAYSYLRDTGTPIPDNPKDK

Exodeoxyribonuclease V = Exodeoxyribonuclease V (Escherichia coli (strain K12), UniProt P04993+P07648+P08394); test: RecBCD inhibition via phage-restricted bacterial growth – absorbance, V66 E. coli, mutant T4 phage, counter-screen for AddAB inhibitor project, dose response (AID 492957); type: functional, cell-based, Escherichia coli str. K-12 substr. MG1655
cells [9] = type: functional, cell-based
HEK293 [10] = test: EBV LMP1 TES2 canonical NF-kB signalling blockers – cell-based, HEK293, luciferase, cherry-pick, dose response (AID 588343); type: functional; details: Homo sapiens
[11] = biological target: Heat shock protein HSP 90-alpha (Homo sapiens, UniProt P07900); type: functional, organism-based
Jurkat [12] = test: SAR Analysis of small molecule inhibitors of T-cell specific antigen receptor-induced NF-kB activation in a Jurkat cell line using a luminescence assay - Set 2. [Related pubchem assays (depositor defined):AID435003, AID435012, AID465]; type: functional, cell-based; details: Homo sapiens
[13] = fluconazole-exposed Candida albicans growth modulators – fluorescence, retest, confirmation (AID 2467); type: functional, cell-based
HEK293 [14] = test: SAR Analysis of small molecule inhibitors of T-cell specific antigen receptor-induced NF-kB activation in a HEK-293T cell line using a luminescence assay. [Related pubchem assays (depositor defined):AID435003, AID435012, AID489026]; type: functional, cell-based; details: Homo sapiens
[15] = system: Streptococcus sp. 'group A'; test: Streptococcus pyogenes SK(-)GAS viability under kanamycin – luminescence, BacTiterGlo, confirmation, counter-screen for streptokinase expression inhibitor project, dose response (AID 1900); type: functional, organism-based
[16] = Trypanosoma cruzi growth suppression in host cells – NIH3T3 host cells, beta-gal luminescence, confirmation (AID 2044); type: functional, cell-based;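 note: intracellular parasites grown in NIH/3T3 mouse fibroblasts as host cells; luminescent beta-galactosidase reporter signal from transgenic T. cruzi replicating inside host cells; inhibitors lower the luminescence signal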
cells [17] = type: functional, cell-based; remark: listed apart in the source
Jurkat [18] = test: SAR Analysis of small molecule inhibitors of T-cell specific antigen receptor-induced NF-kB activation in a Jurkat cell line using a luminescence assay. [Related pubchem assays (depositor defined):AID435003, AID435012, AID465]; type: functional, cell-based; details: Homo sapiens
Streptococcus = test: GAS UMAA2166 growth inhibition – luminescence, BacTiterGlo, counter-screen for streptokinase expression inhibitor project, dose response (AID 1915); type: functional, organism-based;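 note: potency for reduction of bacterial viability or growth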
[19] = Counterscreen for AddAB inhibitors: absorbance-based bacterial cell-based high throughput dose response assay for inhibitors of bacterial viability. [Related pubchem assays (depositor defined):AID435030, AID449728, AID449731, AID488942, AID488955, AID488956]; type: functional
HEK293 [20] = test: HEK293T cell viability loss, resazurin readout – resazurin fluorescence, cytotoxicity control for NF-kB activator project, SAR follow-up (AID 493251); type: functional, cell-based
[21] = biological target: T4, Serine/threonine-protein phosphatase (Candida dubliniensis (strain CD36 / CBS 7987 / NCPF 3949 / NRRLY-17841) (Yeast), UniProt B9W6M3); test: blockers of CaCl2-induced CDRE-lacZ signaling – S. cerevisiae, luminescence, secondary, dose response (AID 2388); type: functional, cell-based;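 note: yeast reporter cells carrying a calcineurin-responsive lacZ construct stimulated with calcium chloride; luminescent beta-galactosidase reporter signal in whole cells rather than isolated phosphatase activity; potency for inhibition where a drop in reporter signal means calcineurin blockade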
T4 sequence (B9W6M3 whole entry): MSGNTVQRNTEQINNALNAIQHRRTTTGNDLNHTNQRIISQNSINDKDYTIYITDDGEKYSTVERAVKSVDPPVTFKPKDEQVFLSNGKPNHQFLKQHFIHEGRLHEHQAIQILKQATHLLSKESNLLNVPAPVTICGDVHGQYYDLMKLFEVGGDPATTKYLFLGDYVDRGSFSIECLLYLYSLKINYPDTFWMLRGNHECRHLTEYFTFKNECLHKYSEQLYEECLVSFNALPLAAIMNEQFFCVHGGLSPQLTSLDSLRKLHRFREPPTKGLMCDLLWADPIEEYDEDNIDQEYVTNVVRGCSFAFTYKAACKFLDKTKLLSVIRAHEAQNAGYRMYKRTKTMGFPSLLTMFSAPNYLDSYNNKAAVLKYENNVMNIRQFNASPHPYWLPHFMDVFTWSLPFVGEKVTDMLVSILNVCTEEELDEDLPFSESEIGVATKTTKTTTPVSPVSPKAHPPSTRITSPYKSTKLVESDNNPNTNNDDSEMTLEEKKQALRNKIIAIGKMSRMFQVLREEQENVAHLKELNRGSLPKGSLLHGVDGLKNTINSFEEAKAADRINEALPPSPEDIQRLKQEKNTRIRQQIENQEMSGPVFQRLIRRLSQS

[22] = Luminescence-based dose response cell-based high throughput screening assay for cytotoxic compounds using the IEC-6 intestinal epithelial cell line. [Related pubchem assays: 1858 (Summary AID.), 1825 (Counterscreen.), 1907 (Confirmation screen.)]; type: functional

Sequence of Exodeoxyribonuclease V (P04993 whole entry): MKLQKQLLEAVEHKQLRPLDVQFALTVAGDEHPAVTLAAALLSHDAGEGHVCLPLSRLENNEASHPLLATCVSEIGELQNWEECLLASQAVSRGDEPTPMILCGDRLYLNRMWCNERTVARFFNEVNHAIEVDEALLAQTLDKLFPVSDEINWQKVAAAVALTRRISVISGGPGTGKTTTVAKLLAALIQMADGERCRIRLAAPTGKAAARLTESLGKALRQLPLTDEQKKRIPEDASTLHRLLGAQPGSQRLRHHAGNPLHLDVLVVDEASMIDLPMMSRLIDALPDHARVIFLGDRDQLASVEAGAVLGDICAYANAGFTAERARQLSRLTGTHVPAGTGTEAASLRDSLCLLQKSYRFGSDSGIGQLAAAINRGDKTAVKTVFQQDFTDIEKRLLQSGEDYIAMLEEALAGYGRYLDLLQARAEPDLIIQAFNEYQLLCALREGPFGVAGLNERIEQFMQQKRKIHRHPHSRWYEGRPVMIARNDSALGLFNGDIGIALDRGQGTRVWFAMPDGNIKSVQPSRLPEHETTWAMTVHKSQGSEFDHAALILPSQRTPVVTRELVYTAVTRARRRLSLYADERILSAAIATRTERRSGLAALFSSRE
Sequence of Exodeoxyribonuclease V (P07648 whole entry): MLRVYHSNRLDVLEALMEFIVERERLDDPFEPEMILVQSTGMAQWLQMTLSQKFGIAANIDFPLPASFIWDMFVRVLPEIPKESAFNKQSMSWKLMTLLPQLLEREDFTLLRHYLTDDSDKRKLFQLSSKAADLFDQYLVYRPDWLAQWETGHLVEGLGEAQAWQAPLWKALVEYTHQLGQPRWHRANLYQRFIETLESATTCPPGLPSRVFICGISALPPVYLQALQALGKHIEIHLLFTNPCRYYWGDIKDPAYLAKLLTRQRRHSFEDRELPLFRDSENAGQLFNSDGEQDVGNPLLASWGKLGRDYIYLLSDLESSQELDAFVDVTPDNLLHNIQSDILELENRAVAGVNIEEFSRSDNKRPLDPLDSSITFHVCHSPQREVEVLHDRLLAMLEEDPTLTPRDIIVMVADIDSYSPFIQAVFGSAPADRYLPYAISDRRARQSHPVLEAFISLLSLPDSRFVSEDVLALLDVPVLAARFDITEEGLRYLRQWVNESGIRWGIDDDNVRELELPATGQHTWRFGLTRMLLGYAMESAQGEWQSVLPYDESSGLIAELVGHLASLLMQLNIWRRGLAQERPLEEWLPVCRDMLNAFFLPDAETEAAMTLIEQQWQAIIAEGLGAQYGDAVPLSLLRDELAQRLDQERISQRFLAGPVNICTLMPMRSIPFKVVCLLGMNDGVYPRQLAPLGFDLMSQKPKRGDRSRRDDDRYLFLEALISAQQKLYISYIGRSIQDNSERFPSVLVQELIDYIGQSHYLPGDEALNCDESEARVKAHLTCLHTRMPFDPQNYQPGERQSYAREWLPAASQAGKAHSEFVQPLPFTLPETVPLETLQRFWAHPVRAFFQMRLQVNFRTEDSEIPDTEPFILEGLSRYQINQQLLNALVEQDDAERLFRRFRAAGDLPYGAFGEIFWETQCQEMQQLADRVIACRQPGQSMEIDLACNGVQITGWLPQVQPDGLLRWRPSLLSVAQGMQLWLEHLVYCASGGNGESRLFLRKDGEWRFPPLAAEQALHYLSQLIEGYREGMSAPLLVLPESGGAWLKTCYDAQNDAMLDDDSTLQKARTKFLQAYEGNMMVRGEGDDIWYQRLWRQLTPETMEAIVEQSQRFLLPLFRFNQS
Sequence of Exodeoxyribonuclease V (P08394 whole entry): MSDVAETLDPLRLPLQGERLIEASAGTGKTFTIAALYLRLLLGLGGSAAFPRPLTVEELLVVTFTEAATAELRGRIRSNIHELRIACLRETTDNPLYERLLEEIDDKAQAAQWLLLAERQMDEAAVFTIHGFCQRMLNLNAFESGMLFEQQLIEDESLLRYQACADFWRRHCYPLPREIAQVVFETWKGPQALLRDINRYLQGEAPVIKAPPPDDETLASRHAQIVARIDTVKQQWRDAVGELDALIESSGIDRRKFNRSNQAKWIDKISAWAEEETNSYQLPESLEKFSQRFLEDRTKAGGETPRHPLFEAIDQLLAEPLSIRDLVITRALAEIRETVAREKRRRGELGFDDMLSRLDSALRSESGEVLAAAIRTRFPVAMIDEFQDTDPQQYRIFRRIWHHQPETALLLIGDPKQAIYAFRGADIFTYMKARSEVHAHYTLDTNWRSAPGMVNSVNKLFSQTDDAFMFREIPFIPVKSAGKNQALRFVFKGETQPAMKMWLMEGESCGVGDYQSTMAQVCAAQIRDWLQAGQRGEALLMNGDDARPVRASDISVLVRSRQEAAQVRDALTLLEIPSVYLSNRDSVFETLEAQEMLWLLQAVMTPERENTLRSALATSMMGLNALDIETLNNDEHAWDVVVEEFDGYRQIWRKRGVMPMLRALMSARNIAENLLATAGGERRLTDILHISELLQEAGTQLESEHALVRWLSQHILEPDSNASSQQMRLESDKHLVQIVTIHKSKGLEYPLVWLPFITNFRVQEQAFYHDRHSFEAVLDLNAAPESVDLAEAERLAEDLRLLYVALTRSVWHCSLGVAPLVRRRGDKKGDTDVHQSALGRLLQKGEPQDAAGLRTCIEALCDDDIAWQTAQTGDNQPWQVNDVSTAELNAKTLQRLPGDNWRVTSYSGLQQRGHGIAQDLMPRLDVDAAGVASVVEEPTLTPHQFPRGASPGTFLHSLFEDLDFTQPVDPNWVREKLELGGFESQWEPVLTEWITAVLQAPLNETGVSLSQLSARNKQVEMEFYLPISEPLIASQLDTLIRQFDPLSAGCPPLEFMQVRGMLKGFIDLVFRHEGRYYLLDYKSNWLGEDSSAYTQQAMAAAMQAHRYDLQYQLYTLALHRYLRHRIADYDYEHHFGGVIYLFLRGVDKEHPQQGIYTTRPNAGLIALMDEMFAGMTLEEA
Sequence of Keap1/Nrf2 (Q16236 whole entry): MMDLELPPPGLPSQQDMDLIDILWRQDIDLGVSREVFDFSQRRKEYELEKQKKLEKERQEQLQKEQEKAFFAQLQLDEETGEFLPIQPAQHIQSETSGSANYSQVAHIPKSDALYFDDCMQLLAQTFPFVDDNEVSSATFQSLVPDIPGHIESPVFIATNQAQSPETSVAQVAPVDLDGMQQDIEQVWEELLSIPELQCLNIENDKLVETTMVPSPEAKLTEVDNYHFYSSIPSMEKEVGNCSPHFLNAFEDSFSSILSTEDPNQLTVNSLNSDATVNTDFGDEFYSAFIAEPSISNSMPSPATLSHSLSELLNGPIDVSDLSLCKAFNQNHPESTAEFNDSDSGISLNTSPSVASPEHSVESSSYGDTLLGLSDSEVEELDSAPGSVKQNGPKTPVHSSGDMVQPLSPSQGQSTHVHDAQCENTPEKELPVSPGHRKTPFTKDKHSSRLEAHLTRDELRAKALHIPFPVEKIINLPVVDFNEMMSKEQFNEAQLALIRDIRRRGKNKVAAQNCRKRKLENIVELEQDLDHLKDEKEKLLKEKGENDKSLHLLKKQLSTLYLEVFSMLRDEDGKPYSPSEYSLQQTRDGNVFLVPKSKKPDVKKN
Sequence of Keap1/Nrf2 (Q14145 whole entry): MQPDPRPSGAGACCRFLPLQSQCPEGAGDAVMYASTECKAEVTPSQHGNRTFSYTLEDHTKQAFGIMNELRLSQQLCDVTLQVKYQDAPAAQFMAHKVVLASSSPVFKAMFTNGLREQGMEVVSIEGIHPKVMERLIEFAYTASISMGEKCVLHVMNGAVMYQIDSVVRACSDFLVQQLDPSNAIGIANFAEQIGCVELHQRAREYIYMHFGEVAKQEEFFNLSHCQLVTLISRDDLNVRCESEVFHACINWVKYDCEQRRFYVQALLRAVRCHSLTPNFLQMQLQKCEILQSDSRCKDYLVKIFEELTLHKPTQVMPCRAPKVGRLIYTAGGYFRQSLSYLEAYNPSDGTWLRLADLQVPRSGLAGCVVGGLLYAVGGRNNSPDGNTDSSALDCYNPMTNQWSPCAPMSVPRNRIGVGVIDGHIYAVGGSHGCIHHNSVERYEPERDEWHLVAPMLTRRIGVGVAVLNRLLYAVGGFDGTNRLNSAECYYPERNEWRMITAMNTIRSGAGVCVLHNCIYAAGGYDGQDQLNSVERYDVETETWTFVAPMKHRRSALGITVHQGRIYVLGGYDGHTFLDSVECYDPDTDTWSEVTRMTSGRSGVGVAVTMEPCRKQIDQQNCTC
Sequence of ATP-dependent molecular chaperone HSP82 (C4YTQ8 whole entry): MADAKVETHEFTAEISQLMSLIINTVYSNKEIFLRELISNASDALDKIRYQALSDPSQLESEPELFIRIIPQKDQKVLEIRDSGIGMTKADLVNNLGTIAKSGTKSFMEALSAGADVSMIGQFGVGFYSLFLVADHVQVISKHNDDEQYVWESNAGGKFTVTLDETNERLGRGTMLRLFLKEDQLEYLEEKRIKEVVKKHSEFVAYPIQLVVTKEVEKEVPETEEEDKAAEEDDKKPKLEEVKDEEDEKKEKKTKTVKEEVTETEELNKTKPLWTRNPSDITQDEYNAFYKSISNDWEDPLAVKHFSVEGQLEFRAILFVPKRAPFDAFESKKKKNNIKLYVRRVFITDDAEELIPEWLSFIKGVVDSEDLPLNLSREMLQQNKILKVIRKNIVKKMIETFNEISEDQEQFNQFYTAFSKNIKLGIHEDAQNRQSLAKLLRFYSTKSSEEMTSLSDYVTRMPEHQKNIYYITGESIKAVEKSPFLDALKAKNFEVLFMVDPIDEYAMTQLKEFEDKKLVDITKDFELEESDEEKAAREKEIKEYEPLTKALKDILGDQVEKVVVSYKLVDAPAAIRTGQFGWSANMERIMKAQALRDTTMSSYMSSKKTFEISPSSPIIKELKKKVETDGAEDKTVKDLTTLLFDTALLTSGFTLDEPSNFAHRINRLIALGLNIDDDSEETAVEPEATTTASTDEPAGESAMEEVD

Compound: CCn1nc(-c2ccccc2)c2nc3ccccc3nc21
- IC50 (Beta Lactamase): 5.36 µM (active)
- EC50 [1]: > 99 µM (inactive)
- AC50 (Keap1/Nrf2): 39.5 µM (active)
- AC50 (ORF 73): 30.9 µM (active)
- EC50 (Troponin, cardiac muscle): 5.55 µM (active)
- IC50 (Ephrin type-A receptor 4): 5.45 µM (active)
- EC50 [2]: 84 µM (inactive)
- EC50 [3]: 6.66 µM (active)
- IC50 (CHO): > 49.7 µM (inactive)
- AC50 (HeLa): 96.5 µM (active)

Compound: CCCC(=O)NC(c1ccc(C)cc1)c1ccc2cccnc2c1O (centres undefined)
- EC50 [4]: 23.6 µM (inconclusive)
- EC50 [5]: 0.588 µM (active)
- EC50 [6]: > 150 µM (inactive)
- IC50 (HEK293 [7]): 6.36 µM (active)
- AC50 (INS1): 0.535 µM (active)
- IC50 [8]: > 80 µM (inactive)
- EC50 (Streptokinase A): > 150 µM (not active)
- IC50 (Exodeoxyribonuclease V): > 119 µM (inactive)
- EC50 (cells [9]): > 350 µM (not active)
- AC50 (HEK293 [10]): 4.94 µM (active)
- AC50 [11]: 3.35 µM (active)
- IC50 (Jurkat [12]): 2.52 µM (active)
- EC50 [13]: 0.449 µM (active)
- IC50 (HEK293 [14]): 6.94 µM (active)
- EC50 [15]: 6.65 µM (active)
- EC50 [16]: 0.348 µM (active)
- EC50 (cells [17]): 6.34 µM (active)
- IC50 (Jurkat [18]): 3.79 µM (active)
- EC50 (Streptococcus): 14.7 µM (active)
- IC50 [19]: > 119 µM (inactive)
- IC50 (HEK293 [20]; Homo sapiens, HEK293): 8.08 µM (active)
- IC50 (HEK293 [20]; hek293): 5.93 µM (active)
- EC50 [21]: > 180 µM (inactive)
- IC50 [22]: 1.47 µM (active)
